Measurements reported in article PMC3750730 (Neuroscience letters, 2013).

What was measured:
[1] = test system: brain glucose; conditions: rats treated with fluoxetine; cited from earlier work
[2] = test system: rats; conditions: rats treated with fluoxetine; cited from earlier work
[3] = target: class II HDAC enzyme subtypes; test: In vitro HDAC deacetylase activity assay; type: biochemical; conditions: read-out: IC50 class II HDAC enzyme subtypes; recombinant human HDACs
[4] = Rat weight during seven days of daily treatment; type: in vivo, rats; conditions: Cpd-60 22.5 mg/kg, CI-994 5 mg/kg, vs vehicle-treated controls

Compound | brain glucose changes [1] | behavioral effects in the forced swim test [2] | IC50 [3] [µM] | effect on rat weight over seven days [4]
CNCCC(Oc1ccc(C(F)(F)F)cc1)c1ccccc1 (stereo not shown) [fluoxetine] | 4–14% | antidepressant behavioral effects | – | –
CC(=O)Nc1ccc(C(=O)Nc2ccccc2N)cc1 [CI-994] | – | – | > 33 | did not significantly affect rat weight
